Assay results published in ChEMBL document CHEMBL5346954, “Rational Design of RNA Demethylase FTO Inhibitors with Enhanced Antileukemia Drug-Like Properties” (J Med Chem, 2023).
Converted amounts (≈) assume the structure as drawn. Blank lines part the entries; values can stand above or below the molecule they belong to. The source made the active and inactive calls. The rule behind the calls is not given here.

Experiments:
[1] = target: T1, Alpha-ketoglutarate-dependent dioxygenase FTO (Homo sapiens, UniProt Q9C0B1); assay: Inhibition of FTO (unknown origin)
Target sequence in this assay (Q9C0B1 whole entry): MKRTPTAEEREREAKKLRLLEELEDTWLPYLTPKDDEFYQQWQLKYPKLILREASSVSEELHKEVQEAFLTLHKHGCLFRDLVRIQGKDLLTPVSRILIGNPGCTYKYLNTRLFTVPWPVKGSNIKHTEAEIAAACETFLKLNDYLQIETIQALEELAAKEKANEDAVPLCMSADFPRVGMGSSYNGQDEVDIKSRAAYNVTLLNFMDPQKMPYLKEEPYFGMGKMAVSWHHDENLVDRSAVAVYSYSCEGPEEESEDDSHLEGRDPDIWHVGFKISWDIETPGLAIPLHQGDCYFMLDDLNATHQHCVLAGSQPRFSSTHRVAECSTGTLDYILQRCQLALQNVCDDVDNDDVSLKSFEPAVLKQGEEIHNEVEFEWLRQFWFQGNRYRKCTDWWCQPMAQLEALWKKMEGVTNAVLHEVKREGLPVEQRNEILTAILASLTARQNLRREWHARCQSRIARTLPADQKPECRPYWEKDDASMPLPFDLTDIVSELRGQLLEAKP

[2] = tested on: MOLM-13; assay: Antiproliferative activity against human MOLM-13 cells incubated for 72 hrs by CCK8 assay; format: functional, cell-based; details: MOLM-13, 72 h
[3] = tested on: NB-4; assay: Antiproliferative activity against human NB4 cells incubated for 72 hrs by CCK8 assay; format: functional, cell-based; details: NB-4, 72 h
[4] = Solubility of the compound in PBS at pH 7.4; format: physicochemical
[5] = Permeability of the compound by PAMPA; format: ADME; details: read-out: permeability
[6] = Metabolic stability in human liver microsomes assessed as half life; format: ADME, Microsome
[7] = Metabolic stability in mouse liver microsomes assessed as half life; format: ADME, Microsome
[8] = Metabolic stability in human liver microsomes assessed as intrinsic clearance per mg of protein; format: ADME, Microsome; details: read-out: CLH
[9] = Metabolic stability in mouse liver microsomes assessed as intrinsic clearance per mg of protein; format: ADME, Microsome; details: read-out: CLH
[10] = Tmax in ICR mouse at 1 mg/kg, iv measured upto 24 hrs by LC-MS/MS analysis; format: ADME, organism-based; details: in vivo
[11] = Tmax in ICR mouse at 10 mg/kg, po measured upto 24 hrs by LC-MS/MS analysis; format: ADME, organism-based; details: in vivo
[12] = Cmax in ICR mouse at 1 mg/kg, iv measured upto 24 hrs by LC-MS/MS analysis; format: ADME, organism-based; parameters: time < 24 hrs, dose 1 mg/kg, route iv; details: in vivo
[13] = Cmax in ICR mouse at 10 mg/kg, po measured upto 24 hrs by LC-MS/MS analysis; format: ADME, organism-based; parameters: dose 10 mg/kg, time < 24 hrs, route po; details: in vivo
[14] = AUC(0 to t) in ICR mouse at 1 mg/kg, iv measured upto 24 hrs by LC-MS/MS analysis; format: ADME, organism-based; parameters: time < 24 hrs, dose 1 mg/kg, route iv; details: in vivo
[15] = AUC(0 to t) in ICR mouse at 10 mg/kg, po measured upto 24 hrs by LC-MS/MS analysis; format: ADME, organism-based; parameters: dose 10 mg/kg, time < 24 hrs, route po; details: in vivo
[16] = AUC(0 to infinity) in ICR mouse at 1 mg/kg, iv measured upto 24 hrs by LC-MS/MS analysis; format: ADME, organism-based; parameters: dose 1 mg/kg, time < 24 hrs, route iv; details: in vivo
[17] = AUC(0 to infinity) in ICR mouse at 10 mg/kg, po measured upto 24 hrs by LC-MS/MS analysis; format: ADME, organism-based; parameters: time < 24 hrs, dose 10 mg/kg, route po; details: in vivo
[18] = Oral bioavailability in ICR mouse at 10 mg/kg measured upto 24 hrs by LC-MS/MS analysis; format: ADME, organism-based; details: in vivo
[19] = target: T2, Alpha-ketoglutarate-dependent dioxygenase alkB homolog 3 (Homo sapiens) (UniProt Q96Q83); assay: Inhibition of ALKBH3 (unknown origin)
T2 sequence (whole entry): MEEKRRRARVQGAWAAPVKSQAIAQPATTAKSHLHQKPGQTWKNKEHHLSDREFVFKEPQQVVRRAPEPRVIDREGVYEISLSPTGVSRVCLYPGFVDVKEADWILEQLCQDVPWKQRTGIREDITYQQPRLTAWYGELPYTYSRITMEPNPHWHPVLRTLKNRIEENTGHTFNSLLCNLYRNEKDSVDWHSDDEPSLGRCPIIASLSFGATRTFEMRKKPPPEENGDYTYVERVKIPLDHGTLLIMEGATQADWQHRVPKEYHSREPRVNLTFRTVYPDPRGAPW

[20] = target: RNA demethylase ALKBH5 (Homo sapiens) (UniProt Q6P6C2); assay: Inhibition of ALKBH5 (unknown origin)
[21] = tested on: HEL; assay: Antiproliferative activity against HEL cells incubated for 72 hrs by CCK8 assay; format: functional, cell-based; details: Homo sapiens
[22] = tested on: KG-1; assay: Antiproliferative activity against human KG-1 cells incubated for 72 hrs by CCK8 assay; format: functional, cell-based; details: KG-1, 72 h
[23] = tested on: MV4-11; assay: Antiproliferative activity against human MV4-11 cells incubated for 72 hrs by CCK8 assay; format: functional, cell-based; details: MV4-11, 72 h
[24] = tested on: THP-1; assay: Antiproliferative activity against human THP-1 cells incubated for 72 hrs by CCK8 assay; format: functional, cell-based; details: THP-1, 72 h
[25] = target: T1, Alpha-ketoglutarate-dependent dioxygenase FTO; assay: Inhibition of FTO (unknown origin) using (5'-AUUGUCA(M6A)CAGCAGC-3') as substrate incubated for 2 hrs by dot-blot assay
Target sequence in this assay (Q9C0B1 whole entry): as the sequence (Q9C0B1 whole entry) above

[26] = target: T1, Alpha-ketoglutarate-dependent dioxygenase FTO; assay: Inhibition of FTO (unknown origin) by PAGE based assay
Target sequence in this assay (Q9C0B1 whole entry): as the sequence (Q9C0B1 whole entry) above

[27] = tested on: NB-4; assay: Inhibition of colony formation in human NB4 cells incubated for 14 days by nitroblue tetrazolium chloride staining based assay; format: functional, cell-based; details: time 14.0 day
[28] = tested on: MOLM-13; assay: Inhibition of colony formation in human MOLM-13 cells incubated for 14 days by nitroblue tetrazolium chloride staining based assay; format: functional, cell-based; details: time 14.0 day
[29] = target: T1, Alpha-ketoglutarate-dependent dioxygenase FTO; assay: Inhibition of FTO in human NB4 cells assessed as increase in abundance of m6A on RNA at 5 to 20 uM incubated for 48 hrs by dot-blot assay; format: cell-based; details: dose 5-20 µM
Target sequence in this assay (Q9C0B1 whole entry, looked up): as the sequence (Q9C0B1 whole entry) above

[30] = target: T1, Alpha-ketoglutarate-dependent dioxygenase FTO; assay: Inhibition of FTO in human MOLM-13 cells assessed as increase in abundance of m6A on RNA at 5 to 20 uM incubated for 48 hrs by dot-blot assay; format: cell-based; details: dose 5-20 µM
Target sequence in this assay (Q9C0B1 whole entry, looked up): as the sequence (Q9C0B1 whole entry) above

[31] = target: T1, Alpha-ketoglutarate-dependent dioxygenase FTO; assay: Inhibition of FTO in human MOLM-13 cells assessed as upregulation RARA RNA level at 5 to 10 uM incubated for 72 hrs by RT-qPCR analysis; format: cell-based; details: dose 5-10 µM
Target sequence in this assay (Q9C0B1 whole entry, looked up): as the sequence (Q9C0B1 whole entry) above

[32] = target: T1, Alpha-ketoglutarate-dependent dioxygenase FTO; assay: Inhibition of FTO in human MOLM-13 cells assessed as downregulation Myc RNA level at 5 to 10 uM incubated for 72 hrs by RT-qPCR analysis; format: cell-based; details: dose 5-10 µM
Target sequence in this assay (Q9C0B1 whole entry, looked up): as the sequence (Q9C0B1 whole entry) above

[33] = target: T1, Alpha-ketoglutarate-dependent dioxygenase FTO; assay: Inhibition of FTO in human MOLM-13 cells assessed as upregulation RARA protein level at 5 to 10 uM incubated for 48 hrs by Western blot analysis; format: cell-based; details: dose 5-10 µM
Target sequence in this assay (Q9C0B1 whole entry, looked up): as the sequence (Q9C0B1 whole entry) above

[34] = target: T1, Alpha-ketoglutarate-dependent dioxygenase FTO; assay: Inhibition of FTO in human MOLM-13 cells assessed as downregulation Myc protein level at 5 to 10 uM incubated for 48 hrs by Western blot analysis; format: cell-based; details: dose 5-10 µM
Target sequence in this assay (Q9C0B1 whole entry, looked up): as the sequence (Q9C0B1 whole entry) above

[35] = tested on: MV4-11; assay: Antitumor activity against human MV4-11 cells xenografted in BALB/c mouse assessed as reduction in tumor volume at 40 mg/kg, ip administered daily for 26 days; format: functional, organism-based; details: time 26.0 day
[36] = tested on: MV4-11; assay: Antitumor activity against human MV4-11 cells xenografted in BALB/c mouse assessed as reduction in tumor weight at 40 mg/kg, ip administered daily for 26 days; format: functional, organism-based; details: time 26.0 day
[37] = Toxicity in BALB/c mouse xenografted with human MV4-11 cells assessed as body weight loss at 40 mg/kg, ip administered daily for 26 days; format: organism-based; details: in vivo, 624 h, time 26 day
[38] = tested on: Mus musculus; assay: In vivo inhibition of FTO in human MV4-11 cells xenografted in BALB/c mouse assessed as increase in m6A abundance at 40 mg/kg, ip administered daily for 26 days; format: functional, organism-based; details: time 26.0 day

Sequence of RNA demethylase ALKBH5 (Homo sapiens) (Q6P6C2 2-394 limits assumed): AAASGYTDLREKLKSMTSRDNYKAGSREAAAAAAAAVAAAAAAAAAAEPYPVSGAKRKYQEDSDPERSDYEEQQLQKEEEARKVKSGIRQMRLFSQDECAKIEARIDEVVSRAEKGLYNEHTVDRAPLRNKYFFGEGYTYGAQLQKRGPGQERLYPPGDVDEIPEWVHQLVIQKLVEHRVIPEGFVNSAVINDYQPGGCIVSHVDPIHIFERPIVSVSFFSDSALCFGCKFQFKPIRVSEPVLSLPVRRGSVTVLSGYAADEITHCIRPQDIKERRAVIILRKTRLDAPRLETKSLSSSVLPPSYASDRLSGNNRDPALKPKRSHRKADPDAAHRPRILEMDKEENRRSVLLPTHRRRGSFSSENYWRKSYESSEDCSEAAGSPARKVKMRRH

IC50 [1]: 4000 nM
IC50 [2]: 1500 nM
solubility [4]: 18.1 µM (≈ 8.86 µg/mL)
Papp [5]: 4.5 ×10⁻⁶ cm/s
SMILES: Cc1n[nH]c(C)c1-c1cc(Cl)c(Nc2cccc(CN3CCCOCC3)c2C(=O)O)c(Cl)c1
IC50 [3]: 1000 nM

IC50 [2]: 1500 nM
SMILES: CCc1cc(-c2ccncc2)cc(CC)c1Nc1cccc(CN2CC(N(C)C)C2)c1C(=O)O
IC50 [3]: 1000 nM

IC50 [1]: 6800 nM
SMILES: CCc1cc(-c2ccncc2)cc(CC)c1Nc1cccc(CN(CC)CCN2CCOCC2)c1C(=O)O

IC50 [2]: 1500 nM
SMILES: CCc1cc(-c2ccncc2)cc(CC)c1Nc1cccc(CN2CCCOCC2)c1C(=O)O
IC50 [3]: 1000 nM

IC50 [2]: 1500 nM
SMILES: Cc1noc(C)c1-c1cc(F)c(Nc2cccc(CN3CCCOCC3)c2C(=O)O)c(F)c1F
IC50 [3]: 1000 nM

solubility [4]: 275 µM (≈ 99.1 µg/mL)
Papp [5]: 17.4 ×10⁻⁶ cm/s
half-life [6]: > 3.08 h
half-life [7]: 1.76 h
microsomal CLint [8]: < 7.5 µL/min/mg
microsomal CLint [9]: < 7.5 µL/min/mg
Tmax [10]: 1.5 h
Tmax [11]: 1 h
Cmax [12]: 5400 ng/mL
Cmax [13]: 8500 ng/mL
AUC(0-t) at 24 h [14]: 36200 ng·h/mL
AUC(0-t) at 24 h [15]: 63600 ng·h/mL
AUC(0-inf) [16]: 39200 ng·h/mL
AUC(0-inf) [17]: 68800 ng·h/mL
bioavailability [18]: 17.5%
SMILES: Cc1noc(C)c1-c1cc(F)c(Nc2ccccc2C(=O)O)c(Cl)c1

IC50 [1]: 2600 nM
SMILES: O=C(O)c1c(CN2CCCOCC2)cccc1Nc1c(C2CC2)cc(-c2ccncc2)cc1C1CC1

IC50 [1]: 7600 nM
SMILES: CCc1cc(-c2ccncc2)cc(CC)c1Nc1cccc(CN(CC)CC)c1C(=O)O

IC50 [1]: 6100 nM
IC50 [2]: 2200 nM
solubility [4]: 42.6 µM (≈ 22.3 µg/mL)
Papp [5]: 14.1 ×10⁻⁶ cm/s
SMILES: Cc1noc(C)c1-c1cc(Cl)c(Nc2cccc(CN3CCCOCC3)c2C(=O)O)c(C(F)(F)F)c1
IC50 [3]: 2300 nM

IC50 [1]: 6300 nM
SMILES: CCc1cc(-c2ccncc2)cc(CC)c1Nc1cccc(CN(CCOC)CCOC)c1C(=O)O

IC50 [2]: 1500 nM
SMILES: CCc1cc(-c2c(C)noc2C)cc(CC)c1Nc1cccc(CN2CCCOCC2)c1C(=O)O
IC50 [3]: 1000 nM

IC50 [1]: 6500 nM
SMILES: CCc1cc(-c2ccncc2)cc(CC)c1Nc1cccc(Cn2ccnc2)c1C(=O)O

IC50 [1]: 2300 nM
inhibition [19]: inactive
inhibition [20]: inactive
IC50 [2]: 1700 nM
IC50 [23]: 3400 nM
IC50 [24]: 6000 nM
IC50 [25]: 120 nM
IC50 [26]: 2300 nM
inhibition [29]: Active
inhibition [30]: Active
inhibition [31]: Active
inhibition [32]: Active
inhibition [33]: Active
inhibition [34]: Active
solubility [4]: 7.6 µM (≈ 3.77 µg/mL)
Papp [5]: 21.4 ×10⁻⁶ cm/s
half-life [6]: 1.53 h
half-life [7]: > 3.08 h
microsomal CLint [8]: 15.1 µL/min/mg
microsomal CLint [9]: 13.3 µL/min/mg
Tmax [10]: 2.5 h
Tmax [11]: 0.5 h
Cmax [12]: 3700 ng/mL
Cmax [13]: 7200 ng/mL
AUC(0-t) at 24 h [14]: 46200 ng·h/mL
AUC(0-t) at 24 h [15]: 80500 ng·h/mL
AUC(0-inf) [16]: 55600 ng·h/mL
AUC(0-inf) [17]: 103000 ng·h/mL
bioavailability [18]: 18.5%
SMILES: Cc1noc(C)c1-c1cc(Cl)c(Nc2cccc(CN3CCCOCC3)c2C(=O)O)c(C2CC2)c1
IC50 [21]: 10300 nM
IC50 [22]: 4100 nM
IC50 [3]: 1500 nM
inhibition [27]: Dose-Dependent Effect
inhibition [28]: Dose-Dependent Effect
Activity [35]: Active
Activity [36]: Active
Activity [37]: Non-Toxic
inhibition [38]: Active

IC50 [2]: 1500 nM
SMILES: Cc1noc(C)c1-c1c(F)c(F)c(Nc2cccc(CN3CCCOCC3)c2C(=O)O)c(F)c1F
IC50 [3]: 1000 nM

solubility [4]: 305 µM (≈ 141 µg/mL)
Papp [5]: < 0.001 ×10⁻⁶ cm/s
SMILES: O=C(O)c1c(CN2CCCOCC2)cccc1Nc1c(Cl)cc(-c2nnn[nH]2)cc1Cl
